# Measured values taken from patent US5866681A, “Thrombin receptor antagonists” (priority 1995, dated 1999).
# Like-named read-outs stand apart in the source and are kept apart here. *1 amine or outer side, *2 acyl side, *3 side chain or, on linkers, in order; H or OH if unused. Where a SMILES comes first, the peptide text is derived from it. [ ]: non-standard residue; d: D form. The star is where a group is joined. X1 = CN(Cc1cccc(Oc2ccccc2)c1)[C@@H](Cc1ccccc1)C(=O)*; X14 = O=C([C@H](Cc1ccccc1)N(CC1CCCCC1)CC1CCCCC1)*; X23 = O=C([C@H](Cc1ccccc1)N(CCC1CCCC1)[*:1])[*:2]; Isoquinolin(3-yl)carbonyl = O=C(c1cc2ccccc2cn1)*; X22 = CCCCCN([C@@H](CCc1ccccc1)C(=O)[*:2])[*:1]; X3 = CCCCCCCN([C@@H](Cc1ccccc1)C(=O)[*:2])[*:1]; X16 = CCCCCN([C@@H](Cc1ccccc1)C(=O)[*:2])[*:1]; X17 = CSCCCN([C@@H](Cc1ccccc1)C(=O)[*:2])[*:1]; Quinoxaline2carbonyl = O=C(c1cnc2ccccc2n1)*; X13 = CN(CC1CCCCC1)[C@@H](Cc1ccccc1)C(=O)*; Quinoline3carbonyl = O=C(c1cnc2ccccc2c1)*; X6 = CCCCCN(CCCCC)[C@@H](Cc1ccccc1)C(=O)*; X9 = CN(Cc1ccccc1)[C@@H](Cc1ccccc1)C(=O)*; X11 = O=C([C@@H]1Cc2ccccc2CN1CC1CCCCC1)*; X19 = CC(C)(C)CN1Cc2ccccc2C[C@H]1C(=O)*; Butanoyl(2-OPh) = CCC(Oc1ccccc1)C(=O)*; X5 = CCCCCN(C)[C@@H](Cc1ccccc1)C(=O)*; X7 = CCCCCCC(Oc1ccc2ccccc2c1)C(=O)*; X20 = CCCCC(Oc1cccc2ccccc12)C(=O)*; NMeR = CN[C@@H](CCCNC(=N)N)C(=O)O; Quinaldoyl = O=C(c1ccc2ccccc2n1)*; Cha = N[C@@H](CC1CCCCC1)C(=O)O; X2 = O=C(Cc1c[nH]c2ccccc12)*; Orn = NCCC[C@H](N)C(=O)O
# Biological target: T1, thrombin receptor (Homo sapiens, UniProt P25116)
# T1 construct: washed human platelets are prepared from blood drawn from healthy volunteers; endogenous in cells; host or cells: washed human platelets from healthy volunteers
# T1 sequence (P25116 22-425): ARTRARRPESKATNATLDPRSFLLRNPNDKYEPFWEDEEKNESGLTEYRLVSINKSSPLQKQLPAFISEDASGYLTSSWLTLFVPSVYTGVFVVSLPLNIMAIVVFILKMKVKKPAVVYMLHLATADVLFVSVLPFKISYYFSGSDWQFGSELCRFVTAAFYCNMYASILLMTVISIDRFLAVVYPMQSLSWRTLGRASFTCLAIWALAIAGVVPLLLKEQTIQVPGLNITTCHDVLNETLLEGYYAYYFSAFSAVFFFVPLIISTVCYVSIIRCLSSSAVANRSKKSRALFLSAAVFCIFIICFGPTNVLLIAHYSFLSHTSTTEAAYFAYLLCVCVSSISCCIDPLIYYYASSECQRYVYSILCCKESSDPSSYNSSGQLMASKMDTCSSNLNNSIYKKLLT
# Experiment: Platelet aggregation assay for thrombin receptor antagonist activity (washed human platelets stimulated with α-thrombin)
# Type: cell-based
# Method: The compounds of the present invention may be tested for thrombin receptor antagonist activity by using a platelet aggregation assay. In this assay, washed human platelets are prepared from blood drawn from healthy volunteers who have not ingested any medications for two weeks prior to donation. Blood is drawn into 12.5% (vol/vol) ACD (85 mM sodium citrate, 111 mM dextrose, 71 mM citric acid) containing 0.1% (vol/vol) PGI2 (0.05 mg/mL PGI2, 100 mM Tris, pH 12). Platelet-rich plasma was obtained by centrifugation at 160×g for 20 minutes. The platelets were pelleted by centrifugation at 760×g for 10 minutes and resuspended in CGS (13 mM trisodium citrate, 120 mM sodium chloride, 30 mM dextrose, pH 7.0) containing 0.1% (vol/vol) PGI2, repelleted and resuspended in Tyrodes buffer (10 mM Hepes, 12 mM sodium bicarbonate, 138 mM sodium chloride, 5.5 mM glucose, 2.9 mM potassium chloride, 1.0 mM calcium chloride, pH 7.4) and stored at 37° C. Approximately 0.4-10 nM α-thrombin is used to stimulate platelet aggregation in control reactions which are monitored by aggregometry using an aggregometer. Candidate antagonists are added to the platelet mixture followed by the addition of thrombin in order to assess their ability to prevent thrombin-mediated aggregation.
# Platelet aggregation can also be measured with washed platelets in 96-well microtiter plates as described in Fratantoni, J. C. et al., Am. J. Clin. Pathol. 94:613-617 (1990). The ability of the antagonists to block the thrombin receptor was assessed in this assay using various concentrations of antagonists. The concentration at which 50% inhibition of platelet aggregation is achieved is defined as IC50.
# [1] = washed human platelets, thrombin-mediated aggregation, read-out: IC50 (concentration at which 50% inhibition of platelet aggregation is achieved)
SMILES,IC50 [1],IC50
CCCCCN[C@@H](CCc1ccccc1)C(=O)N[C@@H](CC1CCCCC1)C(=O)N[C@@H](CC1CCCCC1)C(=O)N[C@@H](CCCNC(=N)N)C(=O)N[C@@H](CCCCN)C(N)=O [Compound 9] (H-[X22][Cha][Cha]RK-NH2),15 µM,–
CCCCCCCN[C@@H](Cc1ccccc1)C(=O)N[C@@H](CC1CCCCC1)C(=O)N[C@@H](CC1CCCCC1)C(=O)N[C@@H](CCCNC(=N)N)C(=O)N[C@@H](CCCCN)C(=O)N1CCC[C@H]1C(=O)N[C@@H](CC(N)=O)C(=O)N[C@@H](CC(=O)O)C(=O)N[C@@H](CCCCN)C(N)=O [Compound 3] (H-[X3][Cha][Cha]RKPNDK-NH2),10 µM,–
CCCCCN(C)[C@@H](Cc1ccccc1)C(=O)N[C@@H](CC1CCCCC1)C(=O)N[C@@H](CC1CCCCC1)C(=O)N[C@@H](CCCNC(=N)N)C(=O)N[C@@H](CCCCN)C(N)=O [Compound 15] (X5-[Cha][Cha]RK-NH2),–,10 µM
N=C(N)NCCC[C@H](NC(=O)[C@H](CC1CCCCC1)NC(=O)[C@H](CC1CCCCC1)NC(=O)c1ccc2ccccc2n1)C(=O)N[C@@H](CCCCN)C(N)=O [Compound 28] (Quinaldoyl-[Cha][Cha]RK-NH2),30 µM,–
N=C(N)NCCC[C@H](NC(=O)[C@H](CC1CCCCC1)NC(=O)[C@H](CC1CCCCC1)NC(=O)[C@H](Cc1ccccc1)NCCC1CCCC1)C(=O)N[C@@H](CCCCN)C(=O)N1CCC[C@H]1C(=O)N[C@@H](CC(N)=O)C(=O)N[C@@H](CC(=O)O)C(=O)N[C@@H](CCCCN)C(N)=O [Compound 6] (H-[X23][Cha][Cha]RKPNDK-NH2),–,10 µM
"CCCCCN(CCCCC)[C@@H](Cc1ccccc1)C(=O)N[C@@H](CC1CCCCC1)C(=O)N[C@@H](CC1CCCCC1)C(=O)N[C@@H](CCCNC(=N)N)C(=O)N[C@@H](CCCCN)C(N)=O [Compound 21, (N,N-di-n-pentyl-Phe)-Cha-Cha-Arg-Lys-NH2] (X6-[Cha][Cha]RK-NH2)",10 µM,–
"CCC(Oc1ccccc1)C(=O)N[C@@H](CC1CCCCC1)C(=O)N[C@@H](CC1CCCCC1)C(=O)N[C@@H](CCCNC(=N)N)C(=O)N[C@@H](CCCCN)C(N)=O (stereo partly drawn) [Compound 10, 2-Phenoxybutyryl-Cha-Cha-Arg-Lys-NH2] ({Butanoyl(2-OPh)}-[Cha][Cha]RK-NH2)",10 µM,–
CC(C)(C)CN1Cc2ccccc2C[C@H]1C(=O)N[C@@H](CC1CCCCC1)C(=O)N[C@@H](CC1CCCCC1)C(=O)N[C@@H](CCCNC(=N)N)C(=O)N[C@@H](CCCCN)C(N)=O [Compound 13] (X19-[Cha][Cha]RK-NH2),5 µM,–
CSCCCN[C@@H](Cc1ccccc1)C(=O)N[C@@H](CC1CCCCC1)C(=O)N[C@@H](CC1CCCCC1)C(=O)N[C@@H](CCCNC(=N)N)C(=O)N[C@@H](CCCCN)C(=O)N1CCC[C@H]1C(=O)N[C@@H](CC(N)=O)C(=O)N[C@@H](CC(=O)O)C(=O)N[C@@H](CCCCN)C(N)=O [Compound 2] (H-[X17][Cha][Cha]RKPNDK-NH2),10 µM,–
CN(CC1CCCCC1)[C@@H](Cc1ccccc1)C(=O)N[C@@H](CC1CCCCC1)C(=O)N[C@@H](CC1CCCCC1)C(=O)N[C@@H](CCCNC(=N)N)C(=O)N[C@@H](CCCCN)C(N)=O [Compound 20] (X13-[Cha][Cha]RK-NH2),15 µM,–
N=C(N)NCCC[C@H](NC(=O)[C@H](CC1CCCCC1)NC(=O)[C@H](CC1CCCCC1)NC(=O)c1cc2ccccc2cn1)C(=O)N[C@@H](CCCCN)C(N)=O [Compound 32] ({Isoquinolin(3-yl)carbonyl}-[Cha][Cha]RK-NH2),–,15 µM
CCCCCCC(Oc1ccc2ccccc2c1)C(=O)N[C@@H](CC1CCCCC1)C(=O)N[C@@H](CC1CCCCC1)C(=O)N[C@@H](CCCNC(=N)N)C(=O)N[C@@H](CCCCN)C(N)=O (stereo partly drawn) [Compound 23] (X7-[Cha][Cha]RK-NH2),5 µM,–
CCCCCN[C@@H](Cc1ccccc1)C(=O)N[C@@H](CC1CCCCC1)C(=O)N[C@@H](CC1CCCCC1)C(=O)N[C@@H](CCCNC(=N)N)C(=O)N[C@@H](CCCCN)C(=O)N1CCC[C@H]1C(=O)N[C@@H](CC(N)=O)C(=O)N[C@@H](CC(=O)O)C(=O)N[C@@H](CCCCN)C(N)=O [Compound 5] (H-[X16][Cha][Cha]RKPNDK-NH2),2.5 µM,–
CCCCCC/C(=C\c1ccccc1)CN[C@@H](CC1CCCCC1)C(=O)N[C@@H](CC1CCCCC1)C(=O)N[C@@H](CCCNC(=N)N)C(=O)N[C@@H](CCCCN)C(N)=O [Compound 26],7.5 µM,–
CCCCC(Oc1cccc2ccccc12)C(=O)N[C@@H](CC1CCCCC1)C(=O)N[C@@H](CC1CCCCC1)C(=O)N[C@@H](CCCNC(=N)N)C(=O)N[C@@H](CCCCN)C(N)=O (stereo partly drawn) [Compound 27] (X20-[Cha][Cha]RK-NH2),5 µM,–
CN(Cc1ccccc1)[C@@H](Cc1ccccc1)C(=O)N[C@@H](CC1CCCCC1)C(=O)N[C@@H](CC1CCCCC1)C(=O)N[C@@H](CCCNC(=N)N)C(=O)N[C@@H](CCCCN)C(N)=O [Compound 19] (X9-[Cha][Cha]RK-NH2),30 µM,–
N=C(N)NCCC[C@H](NC(=O)[C@H](CC1CCCCC1)NC(=O)[C@H](CC1CCCCC1)NC(=O)[C@@H]1Cc2ccccc2CN1CC1CCCCC1)C(=O)N[C@@H](CCCCN)C(N)=O [Compound 12] (X11-[Cha][Cha]RK-NH2),20 µM,–
N=C(N)NCCC[C@H](NC(=O)[C@H](CC1CCCCC1)NC(=O)[C@H](CC1CCCCC1)NC(=O)[C@H](Cc1ccccc1)N(CC1CCCCC1)CC1CCCCC1)C(=O)N[C@@H](CCCCN)C(=O)N1CCC[C@H]1C(=O)N[C@@H](CC(N)=O)C(=O)N[C@@H](CC(=O)O)C(=O)N[C@@H](CCCCN)C(N)=O [Compound 8] (X14-[Cha][Cha]RKPNDK-NH2),5 µM,–
CN(Cc1cccc(Oc2ccccc2)c1)[C@@H](Cc1ccccc1)C(=O)N[C@@H](CC1CCCCC1)C(=O)N[C@@H](CC1CCCCC1)C(=O)N[C@@H](CCCNC(=N)N)C(=O)N[C@@H](CCCCN)C(N)=O [Compound 17] (X1-[Cha][Cha]RK-NH2),15 µM,–

# Continued, in another order:
IC50 [1],SMILES,IC50
> 200 µM,N=C(N)NCCC[C@H](NC(=O)[C@H](CC1CCCCC1)NC(=O)[C@H](CC1CCCCC1)NC(=O)c1cnc2ccccc2c1)C(=O)N[C@@H](CCCCN)C(N)=O [Compound 29] (Quinoline3carbonyl-[Cha][Cha]RK-NH2),–
> 100 µM,N=C(N)NCCC[C@H](NC(=O)[C@H](CC1CCCCC1)NC(=O)[C@H](CC1CCCCC1)NC(=O)c1cnc2ccccc2n1)C(=O)N[C@@H](CCCCN)C(N)=O [Compound 37] (Quinoxaline2carbonyl-[Cha][Cha]RK-NH2),–
5 µM,N=C(N)NCCC[C@H](NC(=O)[C@H](CC1CCCCC1)NC(=O)[C@H](CC1CCCCC1)NC/C=C/c1ccccc1)C(=O)N[C@@H](CCCCN)C(N)=O [Compound 33],–
20 µM,CC/C(=C\c1ccccc1)CN[C@@H](CC1CCCCC1)C(=O)N[C@@H](CC1CCCCC1)C(=O)N[C@@H](CCCNC(=N)N)C(=O)N[C@@H](CCCCN)C(N)=O [Compound 35],–
20 µM,N=C(N)NCCC[C@H](NC(=O)[C@H](CC1CCCCC1)NC(=O)[C@H](CC1CCCCC1)NC(=O)Cc1c[nH]c2ccccc12)C(=O)N[C@@H](CCCCN)C(N)=O [Compound 30] (X2-[Cha][Cha]RK-NH2),–
0.5 µM,CCC(Oc1ccccc1)C(=O)N[C@@H](CC1CCCCC1)C(=O)N[C@@H](CC1CCCCC1)C(=O)N(C)[C@@H](CCCNC(=N)N)C(=O)N[C@@H](CCCNC(=N)N)C(N)=O (stereo partly drawn) [Compound 54] ({Butanoyl(2-OPh)}-[Cha][Cha][NMeR]R-NH2),–
10 µM,CCC(Oc1ccccc1)C(=O)N[C@@H](CC1CCCCC1)C(=O)N[C@@H](CC1CCCCC1)C(=O)N[C@@H](CCCNC(=N)N)C(=O)N[C@@H](CCCN)C(N)=O (stereo partly drawn) [Compound 48] ({Butanoyl(2-OPh)}-[Cha][Cha]R[Orn]-NH2),–
5 µM,CCCCCN[C@@H](Cc1ccccc1)C(=O)N[C@H](CC(C)C)C(=O)N[C@@H](CC1CCCCC1)C(=O)N[C@@H](CCCNC(=N)N)C(=O)N[C@@H](CCCCN)C(N)=O [Compound 45] (H-[X16][dL][Cha]RK-NH2),–
2 µM,CCC(Oc1ccccc1)C(=O)N[C@@H](CC1CCCCC1)C(=O)N[C@@H](CC1CCCCC1)C(=O)N(C)[C@@H](CCCNC(=N)N)C(=O)N[C@@H](CCCCN)C(N)=O (stereo partly drawn) [Compound 53] ({Butanoyl(2-OPh)}-[Cha][Cha][NMeR]K-NH2),–
15 µM,C/C(=C\c1ccccc1)CN[C@@H](CC1CCCCC1)C(=O)N[C@@H](CC1CCCCC1)C(=O)N[C@@H](CCCNC(=N)N)C(=O)N[C@@H](CCCCN)C(N)=O [Compound 34],–
5 µM,CCCCCN[C@@H](Cc1ccccc1)C(=O)N[C@@H](CC1CCCCC1)C(=O)N[C@H](CC(C)C)C(=O)N[C@@H](CCCNC(=N)N)C(=O)N[C@@H](CCCCN)C(N)=O [Compound 44] (H-[X16][Cha][dL]RK-NH2),–
